Experimental data from patent US20150050410A1, “COMPOUNDS, COMPOSITIONS, AND METHODS FOR MODULATING SWEET TASTE” (Chromocell Corporation, priority 2013, published 2015).

Legend:
Type in all cases: in vivo
[1] = system: perception of the sweet taste of an aqueous solution of sweetener in humans; experiment: Two-alternative forced choice "sip and spit" method (2AFC); details: for Fold increase in perceived sweetness: positive control conc. / test sample conc.
Description: The taste test panelists used in the Examples 1-3 were selected using a sensory acuity screening program. Candidate taste panelists were recruited, with prescreening and personal interviews, and were assessed and for their ability to detect, recognize and differentiate basic taste attributes or mixtures thereof as part of a standardized acuity test. This included basic tastes of sweet, sour, salty, bitter and umami, as well as having the capacity to focus on specific aspects of sensory character such as ranking the various tastes perceived and identifying the basic tastes presented at threshold levels.
The effect of the test compounds on the perception of the sweet taste of an aqueous solution of sweetener in humans was evaluated using a two-alternative forced choice “sip and spit” method (2AFC).
(§1) The aqueous sweetener solutions were prepared by adding, fructose, sucrose or glucose (by weight), to water to achieve the desired concentration.
Compounds were first prepared as a 500-fold concentrated stock solution in 100% ethanol. These concentrated stocks were then added to the aqueous sweetener solutions to result in a final ethanol concentration of 0.2%. The control (positive and negative) samples were also normalized to 0.2% ethanol. This level of ethanol was not seen to contribute any perceived sweetness.
The 2AFC test used for compound evaluation was a blind and randomized test where taste panelists (n=15) evaluate a pair of sweetener solutions at a time one sample contains aqueous sweetener solution plus compound (i.e. test) while the other contains aqueous sweetener solution at higher concentration without compound (i.e. positive control). Each test sample was compared against a positive control. For example, if the test sample contained 1× sweetener concentration with compound (e.g. 5% sucrose with compound), the positive control sample contained a 1.1× sweetener concentration (e.g. 5.5% sucrose without compound).
Panelists were instructed not to eat or drink (except water) for at least 1 h before the test. During the test, panelists were instructed to sip each sample, swirl it around their mouth and then expectorate. After tasting each sample in the pair, panelists were instructed to record the sample that is “sweeter” in taste. Panelists cleansed their palates by rinsing with water, eating a cracker and waiting for an interval of about 5 minutes. Each pair was tasted twice. All samples were tasted at ambient temperatures. Data were analyzed using binomial probabilities.
Approximate levels of sweetness enhancement in column 5 of Table 2 were calculated as follows:
Approximate levels of sweetness enhancement=Sweetener concentration of positive control surpassed by the test sample, divided by sweetener concentration for compound-containing sample (e.g. 1.15×=5.75% sucrose/5% sucrose).

[2] = system: perception of the sweet taste in humans; experiment: Trained descriptive analysis (DA) panel, sweet attribute; details: 35 ppm; for compound effects beyond the additive effect of inherent sweetness: 4% fructose and 8% sucrose; for perceived sweetness compared to control sweetener solutions (FIG. 2): aqueous fructose and sucrose solutions at pH 3; for perceived sweetness compared to control sweetener solutions (FIG. 2) / perceived sweetness compared to control sweetener solutions (FIG. 1): ** p<0.01; for perceived sweetness compared to control sweetener solutions (FIG. 1): aqueous fructose and sucrose solutions at pH 7
Description: The effect of the test compounds on the perception of the sweet taste in an aqueous environment, in the absence or presence of carbohydrate sweeteners, was evaluated using a descriptive analysis methodology with a group of trained panelists, as follows.
Candidate panelists were recruited, with prescreening and personal interviews, and were assessed for their ability to detect, recognize and differentiate basic taste attributes or mixtures thereof as part of a standardized acuity test. These candidate panelists were also assessed for their innate ability to identify flavors, and to rank on intensity scales. Other senses such as smell and vision were also included as part of the assessment. Candidates also were screened for their ability to use the language to describe and articulate ideas.
Selected candidates proceeded to training as a group in three phases: (1) Lexicon development, (2) Concept alignment, and (3) Scaling descriptors. During lexicon development, panelists evaluated products appropriate for use in the study to generate and align on terms describing the flavor, taste, aromatic, trigeminal, and temporal attributes. During concept alignment, the panel evaluated the products mentioned above to clarify and confirm the attributes that were generated during lexicon development using reference standards that appropriately define each attribute; these are either physical references (e.g. sucrose solutions) or verbal descriptions (e.g. overall flavor). Product terms and concepts were validated during this portion of the study.
In the last phase, scaling descriptors, the panel participated in a series of exercises focused on ordering and ranking samples according to relative attribute intensity, measuring attribute intensity using a defined length of line scale. Whenever possible, different levels or concentration of references were used as anchors to facilitate use of the scale. Panelists were provided with blinded references at this stage to evaluate their understanding and perception of the scale.
The panel used in this example was trained to reference sweet attributes in an absolute manner, such that a particular concentration of sweetener is always measured by the panelists at the same point using a 15 cm line scale where each cm represents a 1% increase in sucrose to cover the range of 0% to 15% sucrose. For the rest of the attributes, the panel was trained using a hybrid approach between descriptive analysis methods (e.g. quantitative descriptive analysis, the sensory spectrum, etc.) well-known to those skilled in the art.
The trained panel was then used for a descriptive analysis assessment for Compounds 1, 2 and 3 in aqueous solutions at pH 3 and pH 7. Each of the three compounds was tested at 35 ppm in sucrose and fructose sweeteners. In addition, Compounds 1, 2 and 3 were also examined in water at pH 3 and pH 7 to assess for any inherent sweetness.
The aqueous sweetener solutions were prepared by adding, fructose or sucrose (by weight), to water to achieve the desired concentration. Aqueous sucrose solutions at pH 3 were buffered using a final concentration of 0.096% Citric Acid plus 0.036% Sodium Citrate while aqueous fructose solutions at pH 3 were buffered using a final concentration of 0.06% Citric Acid and 0.0225% Sodium Citrate.
Compounds were first prepared as a […] concentrated stock solution in 100% ethanol. These concentrated stocks were then added to the aqueous sweetener solutions to result in a final ethanol concentration of 0.2%. In addition to compounds, a solubilizing agent at a final concentration of 0.02% was added to the aqueous sweetener solutions. Control samples were also balanced with 0.2% ethanol and in certain cases 0.02% solubilizing agent.
Both control (aqueous sweetener solutions without compound) and variant (aqueous sweetener solutions with compound) samples were blinded and randomized (by sweetener and pH blocks). […]

[3] = system: perception of the sweet taste of an aqueous solution of sweetener in humans; experiment: Ranking "sip and spit" assessment of sweetness perception (R index); details: test sample 5% sucrose; compound 10 ppm; vs negative control; R index >=60 = significantly different
Description: The effect of the test compounds on the perception of the sweet taste of an aqueous solution of sweetener in humans was evaluated using a ranking “sip and spit” method.
as §1
Compounds were first prepared as a 500-fold concentrated stock solution in 100% ethanol. These concentrated stocks were then added to the aqueous sweetener solutions to result in a final ethanol concentration of 0.2%. The control (positive and negative) samples were also normalized to 0.2% ethanol.
In the ranking test used for compound evaluation, taste panelists (n=15), rank samples in increasing order of sweetness. One set, comprising of 6 samples, was presented to each panelists at a given time and are asked to rank them in order of increasing sweetness.
Panelists were instructed not to eat or drink (except water) for at least 1 h before the test. During the test, panelists were instructed to sip each sample, swirl it around their mouth and then expectorate. After tasting each set, panelists were instructed to rank the 6 samples within the set from least sweet to most sweet. Where rank 1—is lowest in sweetness and rank 6—is highest in sweetness. Panelists cleansed their palates by rinsing with water, eating a cracker and waiting for an interval of 10 minutes. […]

[4] = test sample 4% fructose, positive control fructose, compound 20 ppm
[5] = test sample 4% fructose, compound 25 ppm
[6] = test sample 4% fructose, positive control fructose, compound 25 ppm

SMILES: CCCOc1ccc(C2CC(=O)c3c(O)cc(O)cc3O2)cc1O (centres unmarked) [Compound 5, 5,7-dihydroxy-2-(3-hydroxy-4-propoxyphenyl)chroman-4-one]
- Sweetener Concentration of positive control surpassed by test sample [1, 4]: > 4.4%

SMILES: COc1ccc(C2CC(=O)c3c(O)cc(OCCCC(=O)O)cc3O2)cc1O (centres unmarked) [Compound 4, 4-((5-hydroxy-2-(3-hydroxy-4-methoxyphenyl)-4-oxochroman-7-yl)oxy)butanoic acid]
- Sweetener Concentration of positive control surpassed by test sample [1, 4]: > 4.4%

SMILES: COc1ccc([C@@H]2CC(=O)c3c(O)cccc3O2)cc1O (single isomer, unassigned) [Compound 2]
- Fold increase in perceived sweetness [1, 5]: >1.20X
- Sweetener Concentration of positive control surpassed by test sample [1, 6]: > 4.8%
- Fold increase in perceived sweetness ([1]; test sample 5% sucrose, compound 15, 25 ppm): >1.20X
- Sweetener Concentration of positive control surpassed by test sample ([1]; test sample 5% sucrose, positive control sucrose, compound 15, 25 ppm): > 6%
- Fold increase in perceived sweetness ([1]; test sample 6.5% glucose, compound 10, 20, 25 ppm): >1.15X
- Sweetener Concentration of positive control surpassed by test sample ([1]; test sample 6.5% glucose, positive control glucose, compound 10, 20, 25 ppm): > 7.48%
- compound effects beyond the additive effect of inherent sweetness ([2]; pH 3, Table 7 vs Table 5): super-additive effects
- compound effects beyond the additive effect of inherent sweetness ([2]; pH 7, Table 6 vs Table 4): super-additive effects
- perceived sweetness compared to control sweetener solutions (FIG. 2) [2]: significant increase in perceived sweetness
- perceived sweetness compared to control sweetener solutions (FIG. 1) [2]: significant increase in perceived sweetness

SMILES: COc1ccc(C2CC(=O)c3c(O)cc(F)cc3O2)cc1O (centres unmarked) [Compound 15, 7-fluoro-5-hydroxy-2-(3-hydroxy-4-methoxyphenyl)chroman-4-one]
- Sweetener Concentration of positive control surpassed by test sample [1, 4]: > 4.4%

SMILES: COc1ccc([C@H]2CC(=O)c3c(O)cccc3O2)cc1O (single isomer, unassigned) [Compound 3]
- Fold increase in perceived sweetness [1, 5]: >1.25X
- Sweetener Concentration of positive control surpassed by test sample [1, 6]: > 5%
- Fold increase in perceived sweetness ([1]; test sample 5% sucrose, compound 15 ppm): >1.20X
- Sweetener Concentration of positive control surpassed by test sample ([1]; test sample 5% sucrose, positive control sucrose, compound 15 ppm): > 6%
- Fold increase in perceived sweetness ([1]; test sample 6.5% glucose, compound 25 ppm): >1.20X
- Sweetener Concentration of positive control surpassed by test sample ([1]; test sample 6.5% glucose, positive control glucose, compound 25 ppm): > 7.8%
- compound effects beyond the additive effect of inherent sweetness ([2]; pH 3, Table 7 vs Table 5): super-additive effects
- compound effects beyond the additive effect of inherent sweetness ([2]; pH 7, Table 6 vs Table 4): super-additive effects
- perceived sweetness compared to control sweetener solutions (FIG. 2) [2]: significant increase in perceived sweetness
- perceived sweetness compared to control sweetener solutions (FIG. 1) [2]: significant increase in perceived sweetness

SMILES: O=C1c2c(O)cc(O)cc2OC(c2ccc(O)c(O)c2)C1O (centres unmarked) [Compound 11, 2-(3,4-dihydroxyphenyl)-3,5,7-trihydroxychroman-4-one]
- R Index Score [3]: 64

SMILES: COc1ccc(C2CC(=O)c3c(O)cc(OCCCS(=O)(=O)[O-])cc3O2)cc1O.[K+] (centres unmarked) [Compound 14, 3-((5-hydroxy-2-(3-hydroxy-4-methoxyphenyl)-4-oxochroman-7-yl)oxy)propane-1-sulfonic acid potassium salt]
- Fold increase in perceived sweetness ([1]; test sample 4% fructose, compound 20 ppm): >1.1X
- Sweetener Concentration of positive control surpassed by test sample [1, 4]: > 4.4%
